Reference: US20220264878A1, “HERBICIDAL COMPOSITION CONTAINING R-TYPE PYRIDYLOXY CARBOXYLIC ACID DERIVATIVE AND USE THEREOF” (Qingdao Kingagroot Chemical Compound Co., Ltd., priority 2019, published 2022)
Where two headings read alike, the source gives them in different places.

Experiments:
Test in all cases: Post-emergence foliage spray, pot culture, fresh weight inhibition (Tables 1-48, 51-98, 101-148; 24 days)
Type in all cases: in vivo
[1] = system: Echinochloa caudate; settings: Echinochloa, 576 h, read-out: Control effect (%) of B applied alone in corresponding dose
Experimental: (§1) The above weeds were cultivated by a pot culture method. […] Full and uniform weed seeds were selected, soaked in warm water at 25° C. for 6 hours, and germinated in a 28° C. biochemical incubator (darkness). The weed seeds that had just germinatedwere evenly placed on the surface of the soil and then covered with 0.5-1 cm soil according to the sizes of seeds.
(§2) The technical materials were all dissolved in acetone, and diluted with an aqueous solution containing 0.1% emulsifier Tween-80. The dilution is performed as required.
(§3) A ratio of the active ingredient A to the active ingredient B and amounts thereof in each group depends on the characteristics and toxicity of the two agents, as well as the main application purpose of a corresponding formulation. Based on the pre-tests in this study, the dosage of the active ingredient A and B applied alone and in combination were shown in the tables. Water containing the solvent and emulsifier same with the above groups but free of the agents was used as a blank control.
(§4) In the stage of weeds with 3˜4 leaves, the weeds were thinned out to maintain 15 weeds per pot and 45 weeds for each treatment, then continued to be cultured to 5˜6 leaves stage of grassy weeds, 6˜7 leaves stage of broadleaf weeds, and treated.
(§5) The well-cultured weeds were evenly placed on a platform with an area of 0.5 m^2, and a solution of agents was sprayed on the stems and leaves thereof by the 3WP-2000-type walking spray tower at a dosage of 450 kg/ha and at a spray pressure of 0.3 MPa. After all the solution was sprayed, the valve was closed. After 30 seconds, the door of the spray tower was opened, and the nutritional bowl was taken out. Then the valve was opened, and the spray tube was cleaned by spraying 50 ml of water.
(§6) A pot-culture method was employed. For the cultivation of weeds, please refer to the Section 1.1), and “Pesticide guidelines for laboratory bioactivity tests—herbicides”. As to a method for applying agents, please refer to the section 2.3.2), that is, a foliage treatment was employed. After the treatment, the weeds were routinely cultured in a greenhouse.
(§7) A method for investigating absolute number was employed, wherein whole seedlings of survival weeds were cut off with a blade along the soil surface, and the fresh weight of the weeds was weighed with an analytical balance. For dead weeds, the fresh weight thereof was zero.
(§8) Wherein, in the formula, X represented the fresh weight inhibition rate of the active ingredient A in a dosage of P, and Y represented the fresh weight inhibition rate of the active ingredient B in a dosage of Q.

[2] = system: Echinochloa crusgalli var. zelayensis; settings: Echinochloa crus-galli, foliar, 576 h, foliage spray, 24 days, read-out: Control effect (%) of B applied alone in corresponding dose; for pest or weed control at 3.75 g/ha: B 3.75 g a.i./ha; for pest or weed control at 7.5 g/ha: B 7.5 g a.i./ha; for pest or weed control at 15 g/ha: B 15 g a.i./ha; for pest or weed control at 30 g/ha: B 30 g a.i./ha
Experimental: as §1, §2, §3, §4, §5, §6, §7, §8

[3] = system: Echinochloa oryzoides; settings: Echinochloa oryzoides, 576 h, read-out: Control effect (%) of B applied alone in corresponding dose; for pest or weed control at 3.75 g/ha: 3.75 g a.i./ha; for pest or weed control at 7.5 g/ha: 7.5 g a.i./ha; for pest or weed control at 15 g/ha: 15 g a.i./ha; for pest or weed control at 30 g/ha: 30 g a.i./ha
Experimental: as §1, §2, §3, §4, §5, §6, §7, §8

Question: Which pest or weed control at 3.75 g/ha ([1]; imazamox 3.75 g a.i./ha) does the source give for `COCc1cnc(C2=NC(C)(C(C)C)C(=O)N2)c(C(=O)O)c1` (stereo not drawn) [imazamox] here?
Answer: 7.6%

Question: What about the pest or weed control at 7.5 g/ha ([1]; imazamox 7.5 g a.i./ha) of the same compound?
Answer: 16.5%

Question: What about the pest or weed control at 15 g/ha ([1]; imazamox 15 g a.i./ha) of the same compound?
Answer: 24.8%

Question: And the pest or weed control at 30 g/ha ([1]; imazamox 30 g a.i./ha)?
Answer: 53.8%

Question: And the pest or weed control at 3.75 g/ha [2]?
Answer: 6.9%

Question: And the pest or weed control at 7.5 g/ha [2]?
Answer: 14.2%

Question: What about the pest or weed control at 15 g/ha [2] of the same compound?
Answer: 25.1%

Question: And the pest or weed control at 30 g/ha [2]?
Answer: 54.8%

Question: And the pest or weed control at 3.75 g/ha ([3]; Table 109)?
Answer: 4%

Question: And the pest or weed control at 7.5 g/ha ([3]; Table 109)?
Answer: 12.6%

Question: What about the pest or weed control at 15 g/ha ([3]; Table 109) of the same compound?
Answer: 27.6%

Question: What about the pest or weed control at 30 g/ha ([3]; Table 109) of the same compound?
Answer: 54.4%

Question: Which pest or weed control at 9.375 g/ha ([1]; imazapic 9.375 g a.i./ha) does the source give for `Cc1cnc(C2=NC(=O)C(C)(C(C)C)N2)c(C(=O)O)c1` (stereo not drawn) [imazapic] here?
Answer: 6.8%

Question: And the pest or weed control at 18.75 g/ha ([1]; imazapic 18.75 g a.i./ha)?
Answer: 21.5%

Question: And the pest or weed control at 37.5 g/ha ([1]; imazapic 37.5 g a.i./ha)?
Answer: 28.6%

Question: What about the pest or weed control at 75 g/ha ([1]; imazapic 75 g a.i./ha) of the same compound?
Answer: 55.6%

Question: And the pest or weed control at 9.375 g/ha ([2]; B 9.375 g a.i./ha)?
Answer: 1.2%

Question: And the pest or weed control at 18.75 g/ha ([2]; B 18.75 g a.i./ha)?
Answer: 18.6%

Question: And the pest or weed control at 37.5 g/ha ([2]; B 37.5 g a.i./ha)?
Answer: 26.9%

Question: And the pest or weed control at 75 g/ha ([2]; B 75 g a.i./ha)?
Answer: 57%

Question: And the pest or weed control at 9.375 g/ha ([3]; Table 108, 9.375 g a.i./ha)?
Answer: 4%

Question: What about the pest or weed control at 18.75 g/ha ([3]; Table 108, 18.75 g a.i./ha) of the same compound?
Answer: 21.3%

Question: And the pest or weed control at 37.5 g/ha ([3]; Table 108, 37.5 g a.i./ha)?
Answer: 30.4%

Question: What about the pest or weed control at 75 g/ha ([3]; Table 108, 75 g a.i./ha) of the same compound?
Answer: 59.7%

Question: What does the source list for `CCc1cnc(C2=NC(C)(C(C)C)C(=O)N2)c(C(=O)O)c1` (stereo not drawn) [imazethapyr]?
Answer: pest or weed control at 7.5 g/ha ([1]; imazethapyr 7.5 g a.i./ha): 4.2%; pest or weed control at 15 g/ha ([1]; imazethapyr 15 g a.i./ha): 18.1%; pest or weed control at 30 g/ha ([1]; imazethapyr 30 g a.i./ha): 34.8%; pest or weed control at 60 g/ha ([1]; imazethapyr 60 g a.i./ha): 55.6%; pest or weed control at 7.5 g/ha [2]: 3.2%; pest or weed control at 15 g/ha [2]: 19.8%; pest or weed control at 30 g/ha [2]: 31.2%; pest or weed control at 60 g/ha ([2]; B 60 g a.i./ha): 59.2%; pest or weed control at 7.5 g/ha ([3]; Table 107): 6.7%; pest or weed control at 15 g/ha ([3]; Table 107): 17.8%; pest or weed control at 30 g/ha ([3]; Table 107): 34.6%; pest or weed control at 60 g/ha ([3]; Table 107, 60 g a.i./ha): 58.2%

Question: For `COc1cc(OC)nc(NC(=O)NS(=O)(=O)c2ncccc2C(=O)N(C)C)n1` [nicosulfuron], which pest or weed control at 3.75 g/ha ([1]; nicosulfuron 3.75 g a.i./ha) is on record?
Answer: 3.8%

Question: What about the pest or weed control at 7.5 g/ha ([1]; nicosulfuron 7.5 g a.i./ha) of the same compound?
Answer: 14.3%

Question: And the pest or weed control at 15 g/ha ([1]; nicosulfuron 15 g a.i./ha)?
Answer: 40.2%

Question: And the pest or weed control at 30 g/ha ([1]; nicosulfuron 30 g a.i./ha)?
Answer: 58.5%

Question: What about the pest or weed control at 3.75 g/ha [2] of the same compound?
Answer: 7.3%

Question: And the pest or weed control at 7.5 g/ha [2]?
Answer: 15.4%

Question: What about the pest or weed control at 15 g/ha [2] of the same compound?
Answer: 39.3%

Question: What about the pest or weed control at 30 g/ha [2] of the same compound?
Answer: 58.7%

Question: What about the pest or weed control at 3.75 g/ha ([3]; Table 104) of the same compound?
Answer: 9.9%

Question: And the pest or weed control at 7.5 g/ha ([3]; Table 104)?
Answer: 18.2%

Question: What about the pest or weed control at 15 g/ha ([3]; Table 104) of the same compound?
Answer: 40.5%

Question: And the pest or weed control at 30 g/ha ([3]; Table 104)?
Answer: 62.4%

Question: With `COc1cnc(OC)n2nc(NS(=O)(=O)c3c(OCC(F)F)cccc3C(F)(F)F)nc12` [penoxsulam] as the compound, how does the pest or weed control at 1.875 g/ha ([1]; penoxsulam 1.875 g a.i./ha) read?
Answer: 3.8%

Question: What about the pest or weed control at 3.75 g/ha ([1]; penoxsulam 3.75 g a.i./ha) of the same compound?
Answer: 15.6%

Question: What about the pest or weed control at 7.5 g/ha ([1]; penoxsulam 7.5 g a.i./ha) of the same compound?
Answer: 46.5%

Question: What about the pest or weed control at 15 g/ha ([1]; penoxsulam 15 g a.i./ha) of the same compound?
Answer: 69.4%

Question: And the pest or weed control at 1.875 g/ha ([2]; B 1.875 g a.i./ha)?
Answer: 2.4%

Question: And the pest or weed control at 3.75 g/ha [2]?
Answer: 10.9%

Question: What about the pest or weed control at 7.5 g/ha [2] of the same compound?
Answer: 48.8%

Question: What about the pest or weed control at 15 g/ha [2] of the same compound?
Answer: 70.1%

Question: What about the pest or weed control at 1.875 g/ha ([3]; Table 101, 1.875 g a.i./ha) of the same compound?
Answer: 4.7%

Question: What about the pest or weed control at 3.75 g/ha ([3]; Table 101) of the same compound?
Answer: 13.8%

Question: What about the pest or weed control at 7.5 g/ha ([3]; Table 101) of the same compound?
Answer: 47.9%

Question: And the pest or weed control at 15 g/ha ([3]; Table 101)?
Answer: 68.4%
